{"source": "patent US4490388A", "about": "“Amidine compound and anticomplement agent comprising same” (Torii & Co., Ltd., priority 1981, dated 1984)", "key": {"complement [1]": {"test_system": "complement", "settings": "Y. Takada et al., Immunology 34, 509-515 (1978); cited from earlier work"}, "C1s": {"biological_target": "T1, C1s (Homo sapiens, UniProt P09871)", "T1 sequence (P09871 438-688 limits assumed)": "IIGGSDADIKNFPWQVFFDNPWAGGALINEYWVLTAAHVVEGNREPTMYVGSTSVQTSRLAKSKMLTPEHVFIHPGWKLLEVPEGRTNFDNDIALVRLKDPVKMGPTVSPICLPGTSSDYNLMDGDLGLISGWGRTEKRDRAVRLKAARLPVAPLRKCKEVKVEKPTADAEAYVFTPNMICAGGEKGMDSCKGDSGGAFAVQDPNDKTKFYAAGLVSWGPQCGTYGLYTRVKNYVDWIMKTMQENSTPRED", "T1 sequence (P09871 16-437 partner limits assumed)": "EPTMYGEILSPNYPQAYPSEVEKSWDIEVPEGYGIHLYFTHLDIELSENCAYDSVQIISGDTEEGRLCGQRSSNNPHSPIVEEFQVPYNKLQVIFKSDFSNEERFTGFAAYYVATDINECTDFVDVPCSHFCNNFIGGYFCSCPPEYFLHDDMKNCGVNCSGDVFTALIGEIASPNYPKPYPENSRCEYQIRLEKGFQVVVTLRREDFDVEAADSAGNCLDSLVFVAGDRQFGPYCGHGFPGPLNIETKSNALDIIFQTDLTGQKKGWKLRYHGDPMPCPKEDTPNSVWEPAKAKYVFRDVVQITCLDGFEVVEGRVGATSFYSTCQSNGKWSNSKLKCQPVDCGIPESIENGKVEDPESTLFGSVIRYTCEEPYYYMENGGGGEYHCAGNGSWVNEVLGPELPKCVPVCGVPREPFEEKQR", "assay": "Anti-C1 esterase activity, C1s (hydrolysis of ATEE)", "format": "biochemical", "protocol": "The anti-C1 esterase (C1r, C1s) activity was determined according to the method of Okamura et al. [K. Okamura, M. Muramatsu and B. Fujii, Biochem. Biophys. Acta, 295, 252-257 (1973)]. The inhibition of complement mediated hemolysis was determined according to the method of Baker et al. [B. R. Baker and E. H. Erickson, J. Med. Chem., 12, 408-414 (1969)]. The figures in Table 2 have the following meanings:\nC1s: Molar concentration of the test compound which inhibits 50% of the ability of C1s to hydrolyse ATEE (acetyltyrosin ethyl ester)."}, "C1r": {"biological_target": "T2, C1r (Homo sapiens, UniProt P00736)", "T2 sequence (P00736 464-705 limits assumed)": "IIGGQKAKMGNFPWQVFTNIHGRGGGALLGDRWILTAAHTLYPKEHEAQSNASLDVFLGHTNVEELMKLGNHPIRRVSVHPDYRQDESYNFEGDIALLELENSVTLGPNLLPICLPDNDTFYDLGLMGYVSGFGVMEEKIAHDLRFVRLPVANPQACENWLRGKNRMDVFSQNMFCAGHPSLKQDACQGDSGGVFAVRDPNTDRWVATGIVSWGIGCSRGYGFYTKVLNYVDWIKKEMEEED", "T2 sequence (P00736 18-463 partner limits assumed)": "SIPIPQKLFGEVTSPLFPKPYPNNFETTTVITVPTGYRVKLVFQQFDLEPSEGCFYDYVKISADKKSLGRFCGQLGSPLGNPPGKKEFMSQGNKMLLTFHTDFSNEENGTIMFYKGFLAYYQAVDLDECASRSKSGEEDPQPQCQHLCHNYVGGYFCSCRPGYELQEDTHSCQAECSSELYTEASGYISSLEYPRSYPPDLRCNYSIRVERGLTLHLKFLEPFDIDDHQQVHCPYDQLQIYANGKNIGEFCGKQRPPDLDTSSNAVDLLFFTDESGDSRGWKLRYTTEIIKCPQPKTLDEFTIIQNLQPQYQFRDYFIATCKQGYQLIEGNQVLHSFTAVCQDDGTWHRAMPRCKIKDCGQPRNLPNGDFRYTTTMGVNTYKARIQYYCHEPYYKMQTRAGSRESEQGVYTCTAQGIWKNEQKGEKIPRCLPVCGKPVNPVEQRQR", "assay": "Anti-C1 esterase activity, C1r (hydrolysis of AAME)", "format": "biochemical", "settings": "molar concentration inhibiting 50% of AAME hydrolysis; read-out: Anti-C1 activity, C1r id50", "protocol": "The anti-C1 esterase (C1r, C1s) activity was determined according to the method of Okamura et al. [K. Okamura, M. Muramatsu and B. Fujii, Biochem. Biophys. […] The figures in Table 2 have the following meanings:\nC1r: Molar concentration of the test compound which inhibits 50% of the ability of C1r to hydrolyse AAME (acetylarginin methyl ester) (id50)."}, "complement [2]": {"test_system": "complement", "assay": "Inhibition of complement mediated hemolysis", "format": "cell-based", "settings": "read-out: Inhibition of complement mediated hemolysis (%)", "procedure": "The complement mediated hemolysis is widely used as a means to determine the titration of complement. The principle of this method is based on the fact that hemolysis is caused by the activation of complement, when the latter is added to a complex (immune complex) of erythrocytes and the autibody thereof. The degree of hemolysis varies in proportion to the amount of complement added. Therefore, when a known amount of complement admixed with a C1 esterase inhibitor is used, the hemolysis must be suppressed in proportion to the inhibitory activity.\nThe anti-C1 esterase (C1r, C1s) activity was determined according to the method of Okamura et al. [K. Okamura, M. Muramatsu and B. Fujii, Biochem. Biophys. […] The inhibition of complement mediated hemolysis was determined according to the method of Baker et al. [B. R. Baker and E. H. Erickson, J. Med. Chem., 12, 408-414 (1969)]."}}}
{"smiles": "CC(=O)N[C@@H](CC(C)C)C(=O)N[C@@H](CC(C)C)C(=O)N[C@H](C=O)CCCNC(=N)N", "note": "[Leupeptin, reference compound]", "values": [{"measurement": "anti-complement activity (in words)", "setting": "complement [1]", "result": "anti-complement activity"}, {"measurement": "IC50", "setting": "C1s", "result": 20, "unit": "µM"}, {"measurement": "IC50", "setting": "C1r", "result": 200, "unit": "µM"}, {"measurement": "inhibition at 0.1 µM", "setting": "complement [2]", "result": 0, "unit": "%"}, {"measurement": "inhibition at 1 µM", "setting": "complement [2]", "result": 0, "unit": "%"}, {"measurement": "inhibition at 10 µM", "setting": "complement [2]", "result": 52, "unit": "%"}, {"measurement": "inhibition at 100 µM", "setting": "complement [2]", "result": 97, "unit": "%"}]}
